Laboratory results as given in PMC9159852, “Synthesis, Structure, and Biologic Activity of Some Copper, Nickel, Cobalt, and Zinc Complexes with 2-Formylpyridine N^4-Allylthiosemicarbazone” (Bioinorganic Chemistry and Applications, 2022).
In brackets after ≈: the same amount, converted by molar mass.

Legend:
[1] = test system: Staphylococcus aureus (ATCC 25923); set-up: method as in PMID 25708540; conditions: S. aureus (G+), reference drug; cited from earlier work
[2] = test system: Escherichia coli (ATCC 25922); set-up: method as in PMID 25708540; conditions: E. coli (G-), reference drug; cited from earlier work
[3] = test system: Candida albicans (ATCC 10231); set-up: method as in PMID 25708540; conditions: C. albicans, reference drug; cited from earlier work
[4] = set-up: method as in doi:10.1134/s1070363221010114; conditions: standard antioxidant; read-out: IC50 toward ABTS•+ radical cation; cited from earlier work

Work on C=CCNC(=S)NN=Cc1cccnc1 yielded a melting point of 180 to 182 °C.

C=CCNC(=S)NN=Cc1ccncc1 showed a melting point of 163 to 165 °C.

For NC(=O)N/N=C/c1ccc([N+](=O)[O-])o1 [Furacillinum, furacillinum], the MBC [1] is listed as 9.3 mg/L (≈ 46.9 µM), the MIC [1] is listed as 9.3 mg/L (≈ 46.9 µM) and the MBC [2] is listed as 37.5 mg/L (≈ 189 µM). The MIC [2] was 18.5 mg/L (≈ 93.4 µM).

In the case of C[C@@H]1[C@H](O)[C@@H](C)/C=C/C=C/CC/C=C/C=C/C=C/C=C/C(O[C@H]2O[C@H](C)[C@@H](O)[C@H](N)[C@@H]2O)CC2O[C@](O)(CC(O)C(O)CCC(O)CC(O)CC(O)CC(=O)O[C@H]1C)CC(O)C2C(=O)O (stereo partly drawn) [Nystatin, nystatin], the MFC [3] is listed as 80 mg/L (≈ 86.4 µM) and the MIC [3] is listed as 80 mg/L (≈ 86.4 µM).

In the case of Cc1c(C)c2c(c(C)c1O)CCC(C)(C(=O)O)O2 (stereo not drawn) [Trolox, trolox], the IC50 [4] is listed as 33 ± 0.7 µM.
